From patent publication US20080200438A1, “Treatment of Autoimmune Diseases” (priority 2005, published 2008)
“Also recorded” adds a separate entry of the source.

Legend:
[1] = tested on: acute experimental autoimmune encephalomyelitis (EAE); experiment: Acute EAE model; type: in vivo, Lewis rat; settings: for Prevention of disease symptoms in the acute EAE model: doses between 0.1 and 10 mg/kg/day, oral
chronic-relapsing EAE = experiment: Chronic-relapsing EAE model; type: in vivo, Lewis rat; settings: 0.3 mg/kg/day orally, day 16 to day 31
Text: Animal models: The monophasic model of acute experimental autoimmune encephalomyelitis (EAE) and the chronic relapsing form are considered to be instructive animal models for multiple sclerosis. EAE can be induced in susceptible animals by a single injection of CNS tissue or MBP emulsified in complete Freund's adjuvant into the base of the tail. A monophasic acute paralytic disease appears in susceptible rat strains, e.g., Lewis, Wistar rat, about 8-11 days post-sensitization. The symptomatic rats recover within the following 7 days, but in other species the attack is usually lethal. In the chronic relapsing disease models rats undergo one to three relapses following the acute disease bout. These relapses are usually from very mild to severe and are observed within 20-100 days after the acute bout.
Chronic-relapsing EAE is induced by injecting an emulsion of guinea pig spinal cord in complete Freund's adjuvant in the hind paws of Lewis rats. Six to ten rats per group are used and somatic symptoms are judged daily on a scale of 0-3. The number of diseased animals as well as the time of onset of the disease is recorded. […] The statistical significance between treated and untreated groups is analyzed on each day using ANOVA analysis of variance followed by Dunn's multiple comparisons. […]

chronic EAE = experiment: Chronic EAE model; type: in vivo, DA rat
Method: Induction of AEA in DA rat is induced as described by Lorentzen et al, 1995, J. Neuroimmunol.; 63(2):193-205 and Adelmann et al, 1995, J. Neuroimmunol.; 63(1):17-27. Briefly, rats are immunized with a mixture of DA rat brain and DA rat and bovine spinal cord homogenate supplemented with 0.02 μg/ml purified recombinant rat MOG protein. The mixture is homogenized and then mixed 1:1 with complete Freund's adjuvant containing 4 mg/ml M. tuberculosis H37RA(CFA). The resultant mixture is then homogenized using a Polytron PT3100 homogenizer (Kinematica, Lucerne, Switzerland). Rats are then injected subcutaneously at the dorsal root of tail with a single injection of 200 μl antigen/CFA. The resultant chronic disease is evaluated using numeric scale of progressive paralysis: 0, no paralysis; 1, loss of tail tonicity; 2, hindlimb weakening or ataxia; 3, hindlimb paralysis with or without urinary incontinence; 4, hindlimb and forelimb paralysis; 5, moribund or death. Clinical scores are evaluated on a daily basis, while body weight is determined every other day. […] Treatment of animals begins at the peak clinical disease on the 12th day and continues daily the 33rd day post-immunization (total 22 days). The test compound or vehicle (for the control groups) is administered orally daily.

[2] = 0.1 mg/kg p.o. daily days 0-13, female Lewis rats
[3] = 0.3 mg/kg p.o. daily days 0-13, female Lewis rats
[4] = 1 mg/kg p.o. daily days 0-13, female Lewis rats

Structure (SMILES): NC(CO)(CO)CCc1ccc(Sc2cccc(OCc3ccccc3)c2)cc1Cl [Compound A, 2-amino-2-[4-(3-benzyloxyphenylthio)-2-chlorophenyl]ethyl-propane-1,3-diol]
- First symptoms on day [1, 2]: 9 days
- Number of Animals with EAE/total Day 12 [1, 2]: 0/5
- Number of Animals with EAE/total Day 14 [1, 2]: 3/4
- First symptoms on day [1, 3]: 14 days
- Number of Animals with EAE/total Day 12 [1, 3]: 0/5
- Number of Animals with EAE/total Day 14 [1, 3]: 1/5
- First symptoms on day [1, 4]: >14 days
- Number of Animals with EAE/total Day 12 [1, 4]: 0/5
- Number of Animals with EAE/total Day 14 [1, 4]: 0/5
- Prevention of disease symptoms in the acute EAE model [1]: lead to prevention of disease symptoms; also recorded: prevents disease symptoms
- Prevention of clinical relapses in the chronic relapsing EAE model (chronic-relapsing EAE): prevents clinical relapses
- Inhibition of chronic EAE (chronic EAE; 0.3, 0.1 or 0.03 mg/kg/d orally, day 12 to day 33 post-immunization): effectively inhibits chronic EAE
- Clinical disease compared to vehicle group (chronic EAE; each dose (0.3, 0.1, 0.03 mg/kg/d orally), statistical analysis): significant reduction in clinical disease

Structure (SMILES): C[C@](N)(CO)CCc1ccc(Sc2cccc(OCc3ccccc3)c2)cc1Cl [Compound B, (R)-2-amino-4-[4-(3-benzyloxyphenylthio)-2-chlorophenyl]-2-methylbutane-1-ol]
- First symptoms on day [1, 4]: >14 days
- Number of Animals with EAE/total Day 12 [1, 4]: 0/5
- Number of Animals with EAE/total Day 14 [1, 4]: 0/5
- Prevention of disease symptoms in the acute EAE model [1]: lead to prevention of disease symptoms

Structure (SMILES): CC[C@](N)(CO)CCc1ccc(Sc2cccc(OCc3ccccc3)c2)cc1Cl [Compound C, (R)-2-amino-4-[4-(3-benzyloxyphenylthio)-2-chlorophenyl]-2-ethylbutane-1-ol]
- First symptoms on day [1, 4]: >14 days
- Number of Animals with EAE/total Day 12 [1, 4]: 0/5
- Number of Animals with EAE/total Day 14 [1, 4]: 0/5
- Prevention of disease symptoms in the acute EAE model [1]: lead to prevention of disease symptoms
